Experiments:
Mu-type opioid receptor [1] = molecular target: T1, Mu-type opioid receptor (Homo sapiens, UniProt P35372)
[2] = molecular target: Delta-type opioid receptor (Homo sapiens, UniProt P41143)
[3] = molecular target: Glutamate receptor ionotropic, NMDA 1 (Rattus norvegicus, UniProt P35439)
[4] = molecular target: T2, Cholecystokinin receptor type A (Homo sapiens, UniProt P32238)
T2 sequence (P32238 whole entry): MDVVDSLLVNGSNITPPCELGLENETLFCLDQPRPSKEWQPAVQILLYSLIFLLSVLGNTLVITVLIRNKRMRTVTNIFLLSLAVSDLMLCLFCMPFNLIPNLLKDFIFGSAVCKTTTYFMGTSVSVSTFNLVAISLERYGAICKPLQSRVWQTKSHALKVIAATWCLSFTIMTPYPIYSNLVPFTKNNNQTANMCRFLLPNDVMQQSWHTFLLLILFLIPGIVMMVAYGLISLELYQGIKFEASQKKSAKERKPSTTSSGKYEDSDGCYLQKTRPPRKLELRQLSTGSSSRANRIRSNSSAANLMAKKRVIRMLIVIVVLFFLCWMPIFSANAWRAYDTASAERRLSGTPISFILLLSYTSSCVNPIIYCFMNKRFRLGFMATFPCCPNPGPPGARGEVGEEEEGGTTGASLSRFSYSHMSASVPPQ

[5] = molecular target: T3, Sodium-dependent noradrenaline transporter (Homo sapiens, UniProt P23975)
[6] = molecular target: T4, Alpha-2B adrenergic receptor (Homo sapiens, UniProt P18089)
T4 sequence (P18089 whole entry): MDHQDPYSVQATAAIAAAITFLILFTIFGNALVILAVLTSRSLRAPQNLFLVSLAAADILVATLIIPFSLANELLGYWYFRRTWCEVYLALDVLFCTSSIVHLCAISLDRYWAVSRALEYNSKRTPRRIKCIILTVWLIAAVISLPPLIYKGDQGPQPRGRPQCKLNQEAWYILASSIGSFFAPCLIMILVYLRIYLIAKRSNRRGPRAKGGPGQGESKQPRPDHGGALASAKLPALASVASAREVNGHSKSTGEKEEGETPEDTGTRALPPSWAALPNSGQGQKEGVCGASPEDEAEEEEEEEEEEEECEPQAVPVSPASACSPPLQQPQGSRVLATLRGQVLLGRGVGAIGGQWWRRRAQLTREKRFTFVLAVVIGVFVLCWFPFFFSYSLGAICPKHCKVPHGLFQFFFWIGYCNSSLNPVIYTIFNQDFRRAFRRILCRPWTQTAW

[7] = molecular target: Growth hormone secretagogue receptor type 1 (Homo sapiens, UniProt Q92847)
[8] = molecular target: Kappa-type opioid receptor (Homo sapiens, UniProt P41145)
[9] = molecular target: T5, Type-1 angiotensin II receptor (Homo sapiens, UniProt P30556)
T5 sequence (P30556 whole entry): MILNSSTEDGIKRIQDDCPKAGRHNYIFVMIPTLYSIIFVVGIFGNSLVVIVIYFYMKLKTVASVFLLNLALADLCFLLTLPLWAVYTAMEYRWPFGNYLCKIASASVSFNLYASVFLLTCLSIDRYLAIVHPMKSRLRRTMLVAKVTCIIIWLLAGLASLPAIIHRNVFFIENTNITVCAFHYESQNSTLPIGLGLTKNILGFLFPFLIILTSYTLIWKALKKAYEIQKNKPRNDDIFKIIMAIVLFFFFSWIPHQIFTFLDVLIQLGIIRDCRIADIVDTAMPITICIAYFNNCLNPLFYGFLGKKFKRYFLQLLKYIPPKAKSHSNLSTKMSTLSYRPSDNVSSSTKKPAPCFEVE

Histamine H3 receptor = Histamine H3 receptor (Homo sapiens, UniProt Q9Y5N1)
[10] = molecular target: T6, Alpha-1A adrenergic receptor (Homo sapiens, UniProt P35348); type: functional, cell-based
T6 sequence (P35348 whole entry): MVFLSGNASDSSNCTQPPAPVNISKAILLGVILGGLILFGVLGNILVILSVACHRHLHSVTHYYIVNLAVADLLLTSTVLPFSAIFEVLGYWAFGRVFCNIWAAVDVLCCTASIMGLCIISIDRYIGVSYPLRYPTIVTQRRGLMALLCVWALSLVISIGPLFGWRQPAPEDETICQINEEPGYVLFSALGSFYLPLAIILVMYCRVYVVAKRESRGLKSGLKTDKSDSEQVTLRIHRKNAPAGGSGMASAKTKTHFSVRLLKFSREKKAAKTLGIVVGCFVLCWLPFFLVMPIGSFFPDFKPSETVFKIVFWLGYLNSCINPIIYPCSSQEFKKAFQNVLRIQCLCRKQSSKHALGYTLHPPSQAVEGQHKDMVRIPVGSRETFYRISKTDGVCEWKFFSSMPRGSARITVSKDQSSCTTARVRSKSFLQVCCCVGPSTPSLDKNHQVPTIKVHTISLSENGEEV

Mu-type opioid receptor [11] = molecular target: T1, Mu-type opioid receptor; assay: biochemical; type: functional
[12] = molecular target: T3, Sodium-dependent noradrenaline transporter; remark: listed apart in the source
[13] = molecular target: Prostaglandin G/H synthase 1 (Homo sapiens, UniProt P23219); type: functional
D(3) dopamine receptor = D(3) dopamine receptor (Homo sapiens, UniProt P35462)
Mu-type opioid receptor [14] = molecular target: T1, Mu-type opioid receptor; remark: listed apart in the source
Also: assay procedure not described here.

Chain of Prostaglandin G/H synthase 1 (P23219 whole entry): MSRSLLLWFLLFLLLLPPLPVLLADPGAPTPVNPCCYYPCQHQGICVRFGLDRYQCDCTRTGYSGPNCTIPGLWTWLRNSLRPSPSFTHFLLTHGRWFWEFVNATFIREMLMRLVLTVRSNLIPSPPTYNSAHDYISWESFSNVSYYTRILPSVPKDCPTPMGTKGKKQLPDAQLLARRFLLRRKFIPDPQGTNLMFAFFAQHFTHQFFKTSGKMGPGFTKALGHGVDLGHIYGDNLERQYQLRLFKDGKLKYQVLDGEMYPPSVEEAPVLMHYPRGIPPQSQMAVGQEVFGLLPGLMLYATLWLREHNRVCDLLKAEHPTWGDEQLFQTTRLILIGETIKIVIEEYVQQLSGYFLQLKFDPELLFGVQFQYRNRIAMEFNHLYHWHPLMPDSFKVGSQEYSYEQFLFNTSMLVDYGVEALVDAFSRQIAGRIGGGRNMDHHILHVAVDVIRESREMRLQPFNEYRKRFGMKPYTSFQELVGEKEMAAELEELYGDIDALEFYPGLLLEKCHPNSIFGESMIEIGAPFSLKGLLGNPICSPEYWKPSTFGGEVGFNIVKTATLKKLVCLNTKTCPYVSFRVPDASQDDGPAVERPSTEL
Chain of Histamine H3 receptor (Q9Y5N1 whole entry): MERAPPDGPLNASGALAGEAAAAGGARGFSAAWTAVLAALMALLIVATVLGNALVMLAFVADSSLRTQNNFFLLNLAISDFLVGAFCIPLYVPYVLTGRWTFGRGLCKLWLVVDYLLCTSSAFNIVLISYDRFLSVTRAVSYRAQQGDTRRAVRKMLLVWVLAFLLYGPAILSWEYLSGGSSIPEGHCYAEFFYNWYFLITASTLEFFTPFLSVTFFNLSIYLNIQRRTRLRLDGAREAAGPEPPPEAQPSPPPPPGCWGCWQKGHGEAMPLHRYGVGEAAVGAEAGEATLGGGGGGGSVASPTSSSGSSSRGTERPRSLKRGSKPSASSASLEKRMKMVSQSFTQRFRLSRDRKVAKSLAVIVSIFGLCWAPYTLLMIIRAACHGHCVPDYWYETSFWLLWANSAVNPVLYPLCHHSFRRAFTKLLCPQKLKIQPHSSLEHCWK
T3 sequence (P23975 whole entry): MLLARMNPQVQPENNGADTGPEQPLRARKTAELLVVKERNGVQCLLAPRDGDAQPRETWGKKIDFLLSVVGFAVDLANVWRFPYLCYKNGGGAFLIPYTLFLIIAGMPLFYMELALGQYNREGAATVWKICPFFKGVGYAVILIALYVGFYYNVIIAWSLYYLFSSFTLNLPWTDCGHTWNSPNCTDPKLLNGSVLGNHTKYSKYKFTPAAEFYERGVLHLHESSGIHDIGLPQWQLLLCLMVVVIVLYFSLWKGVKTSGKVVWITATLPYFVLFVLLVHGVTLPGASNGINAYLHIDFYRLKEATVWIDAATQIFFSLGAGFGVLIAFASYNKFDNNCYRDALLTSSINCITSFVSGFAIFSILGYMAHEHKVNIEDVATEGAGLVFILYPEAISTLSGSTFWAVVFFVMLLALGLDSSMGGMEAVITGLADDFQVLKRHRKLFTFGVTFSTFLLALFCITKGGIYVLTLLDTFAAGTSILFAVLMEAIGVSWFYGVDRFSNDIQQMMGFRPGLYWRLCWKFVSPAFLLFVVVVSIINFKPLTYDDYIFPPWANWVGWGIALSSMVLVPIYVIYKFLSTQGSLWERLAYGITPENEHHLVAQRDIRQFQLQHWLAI
T1 sequence (P35372 whole entry): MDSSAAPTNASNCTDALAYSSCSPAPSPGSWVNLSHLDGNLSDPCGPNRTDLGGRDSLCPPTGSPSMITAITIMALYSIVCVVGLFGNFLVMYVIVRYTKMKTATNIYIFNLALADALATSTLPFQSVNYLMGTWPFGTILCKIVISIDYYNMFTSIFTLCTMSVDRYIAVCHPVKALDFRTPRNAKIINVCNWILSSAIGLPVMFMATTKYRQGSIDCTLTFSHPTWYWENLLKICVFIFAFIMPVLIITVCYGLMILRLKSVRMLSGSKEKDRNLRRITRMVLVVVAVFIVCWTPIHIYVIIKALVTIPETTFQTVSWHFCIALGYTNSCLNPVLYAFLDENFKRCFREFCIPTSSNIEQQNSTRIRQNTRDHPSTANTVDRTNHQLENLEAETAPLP
Chain of Delta-type opioid receptor (P41143 whole entry): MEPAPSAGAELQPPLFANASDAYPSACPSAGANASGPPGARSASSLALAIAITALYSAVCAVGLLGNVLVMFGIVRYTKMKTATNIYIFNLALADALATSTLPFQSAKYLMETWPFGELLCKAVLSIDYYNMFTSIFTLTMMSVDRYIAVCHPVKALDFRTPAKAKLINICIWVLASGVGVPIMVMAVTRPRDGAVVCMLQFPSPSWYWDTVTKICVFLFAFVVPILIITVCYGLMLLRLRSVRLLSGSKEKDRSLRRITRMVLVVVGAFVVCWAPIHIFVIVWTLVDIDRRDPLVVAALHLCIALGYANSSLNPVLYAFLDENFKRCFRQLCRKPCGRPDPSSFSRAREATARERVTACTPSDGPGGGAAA
Chain of Growth hormone secretagogue receptor type 1 (Q92847 whole entry): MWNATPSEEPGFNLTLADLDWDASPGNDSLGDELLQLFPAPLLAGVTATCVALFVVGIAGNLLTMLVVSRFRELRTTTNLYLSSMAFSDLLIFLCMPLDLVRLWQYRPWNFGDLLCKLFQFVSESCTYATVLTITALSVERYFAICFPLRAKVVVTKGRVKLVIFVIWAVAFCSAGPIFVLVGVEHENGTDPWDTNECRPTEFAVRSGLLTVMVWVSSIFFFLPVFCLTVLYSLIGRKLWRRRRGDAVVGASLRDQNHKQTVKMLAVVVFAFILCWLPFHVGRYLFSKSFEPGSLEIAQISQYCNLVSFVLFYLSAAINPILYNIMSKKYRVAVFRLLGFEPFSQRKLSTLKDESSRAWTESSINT
Chain of D(3) dopamine receptor (P35462 whole entry): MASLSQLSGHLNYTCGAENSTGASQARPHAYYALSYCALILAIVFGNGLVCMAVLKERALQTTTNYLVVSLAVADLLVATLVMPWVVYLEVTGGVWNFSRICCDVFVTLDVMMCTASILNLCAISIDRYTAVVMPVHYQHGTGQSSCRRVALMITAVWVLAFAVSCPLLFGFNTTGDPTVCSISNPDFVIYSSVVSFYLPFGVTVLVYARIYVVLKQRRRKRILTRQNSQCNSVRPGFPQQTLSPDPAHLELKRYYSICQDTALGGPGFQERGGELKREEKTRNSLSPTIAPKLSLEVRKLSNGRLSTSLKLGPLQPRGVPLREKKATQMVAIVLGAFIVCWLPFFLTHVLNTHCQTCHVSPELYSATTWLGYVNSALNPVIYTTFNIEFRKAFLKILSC
Chain of Kappa-type opioid receptor (P41145 whole entry): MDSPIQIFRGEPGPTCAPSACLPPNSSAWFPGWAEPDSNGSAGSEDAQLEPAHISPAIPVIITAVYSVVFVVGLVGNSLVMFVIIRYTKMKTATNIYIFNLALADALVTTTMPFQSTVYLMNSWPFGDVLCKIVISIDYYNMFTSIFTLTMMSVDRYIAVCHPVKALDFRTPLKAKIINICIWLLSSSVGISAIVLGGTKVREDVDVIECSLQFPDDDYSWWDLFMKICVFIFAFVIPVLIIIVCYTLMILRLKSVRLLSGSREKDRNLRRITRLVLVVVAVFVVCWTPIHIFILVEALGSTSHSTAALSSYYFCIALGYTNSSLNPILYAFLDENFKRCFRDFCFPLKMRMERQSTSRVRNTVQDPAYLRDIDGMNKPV

SMILES | AC50 (Mu-type opioid receptor [1]) [µM] | AC50 [2] [µM] | AC50 [3] [µM] | AC50 [4] [µM] | AC50 [5] [µM] | AC50 [6] [µM] | AC50 [7] [µM] | AC50 [8] [µM] | AC50 [9] [µM] | AC50 (Histamine H3 receptor) [µM] | AC50 [10] [µM] | AC50 (Mu-type opioid receptor [11]) [µM] | AC50 [12] [µM] | AC50 [13] [µM] | AC50 (D(3) dopamine receptor) [µM] | AC50 (Mu-type opioid receptor [14]) [µM]
C[N+]1(C)CCC(=C(c2ccccc2)c2ccccc2)CC1 | > 30 | > 30 | > 10 | > 30 | > 10 | > 10 | > 30 | > 10 | > 10 |  |  |  |  |  |  | 
CN(C)Cc1nnc2n1-c1ccc(Cl)cc1C(c1ccccc1)=NC2 [ADINAZOLAM] | > 30 | > 30 | > 10 | > 10 | > 10 | > 10 | > 10 | 3.29 | > 10 | > 10 |  |  |  |  |  | 
CCC1(c2ccc(N)cc2)CCC(=O)NC1=O (stereo unspecified) [AMINOGLUTETHIMIDE] | > 30 | > 30 | > 30 | > 30 | > 30 |  | > 30 | > 30 | > 30 | > 30 | > 30 | > 30 |  |  |  | 
O=C(/C=C/c1cccc(S(=O)(=O)Nc2ccccc2)c1)NO [BELINOSTAT] | > 30 | > 30 | > 10 | > 30 | > 10 | > 10 | > 30 | > 10 | > 30 | > 10 |  |  | > 30 | 6.9 | > 30 | > 30
CC(Cc1cccc(C(F)(F)F)c1)NCCOC(=O)c1ccccc1 (stereo unspecified) [BENFLUOREX] | 17 | > 30 | > 30 | > 30 | 23 |  | 28 | > 30 | > 30 | > 30 | 14 | 11 |  |  |  | 
CCOC(=O)c1ccc(N)cc1 [BENZOCAINE] | > 30 | > 30 | > 10 | > 10 | > 10 |  | > 10 | > 10 | > 10 | > 10 |  |  |  |  |  | 
CC(C)(Oc1ccc(CCNC(=O)c2ccc(Cl)cc2)cc1)C(=O)O [BEZAFIBRATE] | > 30 | > 30 | > 10 | > 10 | > 10 |  | > 10 | > 10 | > 10 | > 10 | > 30 |  |  |  |  | 
CC(O)(CS(=O)(=O)c1ccc(F)cc1)C(=O)Nc1ccc(C#N)c(C(F)(F)F)c1 (stereo unspecified) [BICALUTAMIDE] | > 10 | > 10 | > 10 | > 30 | > 30 |  | 2.2 | > 10 | > 30 | > 30 | > 30 |  | > 30 | > 30 | > 30 | > 30
CC(=O)O[C@]1(C(C)=O)CC[C@H]2[C@@H]3C=C(Cl)C4=CC(=O)[C@@H]5C[C@@H]5[C@]4(C)[C@H]3CC[C@@]21C [CYPROTERONE ACETATE] | > 30 | > 30 | > 10 | > 30 | > 30 |  | > 30 | > 10 | > 30 | > 10 |  |  | > 30 | > 30 | > 30 | > 30
